Literature values as cited in publication PMC6399674 (The Journal of Organic Chemistry, 2019).
Read-outs that look alike come from different tables or passages of the source.

Molecular target: T1, lectin LecA (Pseudomonas aeruginosa, UniProt Q05097)
T1 sequence (Q05097 1-122): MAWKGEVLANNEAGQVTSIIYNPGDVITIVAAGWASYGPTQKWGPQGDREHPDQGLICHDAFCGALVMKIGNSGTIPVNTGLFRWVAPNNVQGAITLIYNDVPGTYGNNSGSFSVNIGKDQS
Conditions: ITC

Row | Kd | Compound | n (stoichiometry) | ΔG | ΔH | –TΔS | Kd (as stated in text)
1 |  | O=C[C@H](O)[C@@H](O)[C@@H](O)[C@H](O)CO [D-dalactose, galactose] | 1.1 | –5.5 kcal/mol | –7.9 kcal/mol | 2.3 kcal/mol | 70 to 90 µM
2 | 8.8 µM | OC[C@H]1O[C@@H](Oc2ccccc2)[C@H](O)[C@@H](O)[C@H]1O [Gal-β-OPh] | 0.9 | –6.9 kcal/mol | –11.2 kcal/mol | 4.8 kcal/mol | ~9 µM
